Measured values published in paper PMC12122756, “Versatile biocatalyst: lipase from Streptomyces gobitricini for ester synthesis and detergent innovation” (Frontiers in Bioengineering and Biotechnology, 2025).
Read-outs that look alike come from different tables or passages of the source. One block for each molecule: values may come before it.

System: T1, LipS.g
T1 construct: native extracellular enzyme purified from culture supernatant (heat, ammonium sulfate, Sephadex S-200); about 50 kDa SDS-PAGE, 53,262 Da MALDI-TOF
Experiment: pH-stat titrimetry, Lineweaver-Burk
Assay type: biochemical, Streptomyces gobitricini
Settings: pH 9.0, 50°C, triglyceride emulsion, apparent Km
Source text: pH-stat titrimetry, Lineweaver-Burk on LipS.g

Km (read-out: TC8): 13.22 ± 0.106 mM
Structure (SMILES): CCCCCCCC(=O)OCC(COC(=O)CCCCCCC)OC(=O)CCCCCCC [TC8, trioctanoin]

Km (read-out: TC18): 6.45 ± 0.289 mM
Structure (SMILES): CCCCCCCC/C=C\CCCCCCCC(=O)OCC(COC(=O)CCCCCCC/C=C\CCCCCCCC)OC(=O)CCCCCCC/C=C\CCCCCCCC [TC18, triolein]

Km (read-out: Lipase activity (%) / TC4): 26.7 ± 0.063 mM
Structure (SMILES): CCCC(=O)OCC(COC(=O)CCC)OC(=O)CCC [TC4, Tributyrin]
